# Reference: patent US8952024B2, “Herbicidal pyrimidone derivatives” (E I du Pont de Nemours and Company, priority 2009, dated 2015)
# What was measured:
# Format in all cases: in vivo
# [1] = tested on: barnyardgrass (Echinochloa crus-galli); assay: Test A pre-/postemergence plant response
# In short: (§1)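 Formulated test chemicals (non-phytotoxic solvent, surfactant) were sprayed onto soil right after planting and simultaneously onto young plants at one to two leaves, 2 to 10 cm tall. Plants stayed in the greenhouse about ten days; injury was then visually scored against untreated controls, from 0 (no effect) to 100 (complete control).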
# corn (Zea mays) = assay: Test A pre-/postemergence plant response
# In short: as §1
# [2] = tested on: giant foxtail (Setaria faberii); assay: Test A pre-/postemergence plant response
# In short: as §1
# [3] = tested on: large crabgrass (Digitaria sanguinalis); assay: Test A pre-/postemergence plant response
# In short: as §1
# [4] = tested on: morningglory (Ipomoea spp.); assay: Test A pre-/postemergence plant response
# In short: as §1
# [5] = tested on: pigweed (Amaranthus retroflexus); assay: Test A pre-/postemergence plant response
# In short: as §1
# [6] = tested on: velvetleaf (Abutilon theophrasti); assay: Test A pre-/postemergence plant response
# In short: as §1
# [7] = tested on: wheat (Triticum aestivum); assay: Test A pre-/postemergence plant response
# In short: as §1
# [8] = tested on: cocklebur (Xanthium strumarium); assay: Test B pre-/postemergence plant response
# In short: (§2)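 Steps: sow seed in loam–sand soil and spray preemergence, or grow plants in peat-based medium to 1–4 leaves (2–18 cm) and spray postemergence; formulation is non-phytotoxic solvent plus surfactant; hold in greenhouse 13–15 days; score visually vs controls, 0 = no effect, 100 = complete control.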
# [9] = tested on: giant foxtail (Setaria faberii); assay: Test B pre-/postemergence plant response
# In short: as §2
# [10] = tested on: green foxtail (Setaria viridis); assay: Test B pre-/postemergence plant response
# In short: as §2
# [11] = Postemergence, 125 g ai/ha, visual injury, 0 to 100 scale (0 no effect, 100 complete control), approx. ten days
# [12] = Postemergence, 500 g ai/ha, 0 to 100 scale, 0 = no effect, 100 = complete control, approx. ten days
# [13] = Preemergence, 125 g ai/ha, 0 to 100 scale, 0 = no effect, 100 = complete control
# [14] = Preemergence, 500 g ai/ha, visual injury, 0 to 100 scale (0 no effect, 100 complete control), approx. ten days
# [15] = 31 g ai/ha, postemergence, scale 0 to 100, 0 is no effect, 100 is complete control
# [16] = 62 g ai/ha, postemergence, 0 is no effect, 100 is complete control, 13 to 15 days
# [17] = 250 g ai/ha, Preemergence, 0 to 100 scale
# [18] = Postemergence, 125 g ai/ha, visual rating after 13 to 15 days, scale 0 (no effect) to 100 (complete control)
# [19] = Postemergence, 250 g ai/ha, scale 0 to 100 (0 no effect, 100 complete control)
# [20] = Preemergence, 31 g ai/ha, scale 0 to 100 (0 no effect, 100 complete control)
# [21] = Preemergence, 62 g ai/ha, scale 0 to 100, 0 no effect, 100 complete control
# [22] = Preemergence, 125 g ai/ha, scale 0 to 100, 0 no effect, 100 complete control
# [23] = Postemergence, 31 g ai/ha, scale 0 to 100 (0 no effect, 100 complete control)
# [24] = Postemergence, 62 g ai/ha, scale 0 (no effect) to 100 (complete control), 13 to 15 days
# [25] = Postemergence, 250 g ai/ha, scale 0 to 100
# [26] = Preemergence, 125 g ai/ha, 0 to 100 scale
compound,measurement,setting,value
CCCc1ncc(C(=O)C2=C(O)CCCC2=O)c(=O)n1CCC [Compound 72],Barnyardgrass plant response rating,[1]; [11],80
same,"Plant response rating, Barnyardgrass",[1]; [12],90
same,"Plant response rating, Barnyardgrass",[1]; [13],10
same,"Plant response rating, Barnyardgrass",[1]; [14],60
same,Corn plant response rating,corn (Zea mays); [11],0
same,"Plant response rating, Corn",corn (Zea mays); [12],10
same,"Plant response rating, Corn",corn (Zea mays); [13],0
same,"Plant response rating, Corn",corn (Zea mays); [14],20
same,"Foxtail, Giant plant response rating",[2]; [11],40
same,"Plant response rating, Foxtail, Giant",[2]; [12],60
same,"Plant response rating, Foxtail, Giant",[2]; [13],0
same,"Plant response rating, Foxtail, Giant",[2]; [14],30
same,"Crabgrass, Large plant response rating",[3]; [11],80
same,"Plant response rating, Crabgrass, Large",[3]; [12],90
same,"Plant response rating, Crabgrass, Large",[3]; [13],70
same,"Plant response rating, Crabgrass, Large",[3]; [14],100
same,Morningglory plant response rating,[4]; [11],90
same,"Plant response rating, Morningglory",[4]; [12],90
same,"Plant response rating, Morningglory",[4]; [14],70
same,Pigweed plant response rating,[5]; [11],80
same,"Plant response rating, Pigweed",[5]; [12],100
same,"Plant response rating, Pigweed",[5]; [13],50
same,"Plant response rating, Pigweed",[5]; [14],90
same,Velvetleaf plant response rating,[6]; [11],100
same,"Plant response rating, Velvetleaf",[6]; [12],100
same,"Plant response rating, Velvetleaf",[6]; [13],90
same,"Plant response rating, Velvetleaf",[6]; [14],100
same,Wheat plant response rating,[7]; [11],0
same,"Plant response rating, Wheat",[7]; [12],0
same,"Plant response rating, Wheat",[7]; [13],0
same,"Plant response rating, Wheat",[7]; [14],0
same,"Plant response rating, Cocklebur",[8]; [15],75
same,Cocklebur plant response rating (0 to 100 scale),[8]; [16],80
same,"Plant response rating, Cocklebur",[8]; [17],80
same,"Plant response rating, Cocklebur",[8]; [18],90
same,"Plant response rating, Cocklebur",[8]; [19],95
same,"Plant response rating, Cocklebur",[8]; [20],10
same,"Plant response rating, Cocklebur",[8]; [21],50
same,"Plant response rating, Cocklebur",[8]; [22],70
same,"Plant response rating, Foxtail, Giant",[9]; [15],65
same,"Foxtail, Giant plant response rating (0 to 100 scale)",[9]; [16],70
same,"Plant response rating, Foxtail, Giant",[9]; [17],65
same,"Plant response rating, Foxtail, Giant",[9]; [18],75
same,"Plant response rating, Foxtail, Giant",[9]; [19],80
same,"Plant response rating, Foxtail, Giant",[9]; [20],0
same,"Plant response rating, Foxtail, Giant",[9]; [21],5
same,"Plant response rating, Foxtail, Giant",[9]; [22],10
same,"Plant response rating, Foxtail, Green",[10]; [15],10
same,"Foxtail, Green plant response rating (0 to 100 scale)",[10]; [16],70
same,"Plant response rating, Foxtail, Green",[10]; [17],90
same,"Plant response rating, Foxtail, Green",[10]; [18],90
same,"Plant response rating, Foxtail, Green",[10]; [19],90
same,"Plant response rating, Foxtail, Green",[10]; [20],0
same,"Plant response rating, Foxtail, Green",[10]; [21],0
same,"Plant response rating, Foxtail, Green",[10]; [22],50
Cc1cccc(-n2c(-c3ccccc3)ncc(C(=O)C3=C(O)CCCC3=O)c2=O)c1C [Compound 27],Barnyardgrass plant response rating,[1]; [11],50
same,"Plant response rating, Barnyardgrass",[1]; [12],90
same,"Plant response rating, Barnyardgrass",[1]; [13],10
same,"Plant response rating, Barnyardgrass",[1]; [14],80
same,Corn plant response rating,corn (Zea mays); [11],0
same,"Plant response rating, Corn",corn (Zea mays); [12],30
same,"Plant response rating, Corn",corn (Zea mays); [13],0
same,"Plant response rating, Corn",corn (Zea mays); [14],0
same,"Foxtail, Giant plant response rating",[2]; [11],80
same,"Plant response rating, Foxtail, Giant",[2]; [12],90
same,"Plant response rating, Foxtail, Giant",[2]; [13],30
same,"Plant response rating, Foxtail, Giant",[2]; [14],90
same,"Crabgrass, Large plant response rating",[3]; [11],70
same,"Plant response rating, Crabgrass, Large",[3]; [12],100
same,"Plant response rating, Crabgrass, Large",[3]; [13],30
same,"Plant response rating, Crabgrass, Large",[3]; [14],90
same,Morningglory plant response rating,[4]; [11],60
same,"Plant response rating, Morningglory",[4]; [12],70
same,"Plant response rating, Morningglory",[4]; [13],20
same,"Plant response rating, Morningglory",[4]; [14],80
same,Pigweed plant response rating,[5]; [11],100
same,"Plant response rating, Pigweed",[5]; [12],100
same,"Plant response rating, Pigweed",[5]; [13],70
same,"Plant response rating, Pigweed",[5]; [14],90
same,Velvetleaf plant response rating,[6]; [11],100
same,"Plant response rating, Velvetleaf",[6]; [12],100
same,"Plant response rating, Velvetleaf",[6]; [13],60
same,"Plant response rating, Velvetleaf",[6]; [14],100
same,Wheat plant response rating,[7]; [11],0
same,"Plant response rating, Wheat",[7]; [12],0
same,"Plant response rating, Wheat",[7]; [13],0
same,"Plant response rating, Wheat",[7]; [14],0
same,"Plant response rating, Cocklebur",[8]; [17],90
same,"Plant response rating, Cocklebur",[8]; [23],90
same,"Plant response rating, Cocklebur",[8]; [24],95
same,"Plant response rating, Cocklebur",[8]; [18],95
same,Cocklebur plant response rating,[8]; [25],98
same,"Plant response rating, Cocklebur",[8]; [20],0
same,"Plant response rating, Cocklebur",[8]; [21],85
same,Cocklebur plant response rating,[8]; [26],85
same,"Plant response rating, Foxtail, Giant",[9]; [17],95
same,"Plant response rating, Foxtail, Giant",[9]; [23],65
same,"Plant response rating, Foxtail, Giant",[9]; [24],85
same,"Plant response rating, Foxtail, Giant",[9]; [18],90
same,"Foxtail, Giant plant response rating",[9]; [25],90
same,"Plant response rating, Foxtail, Giant",[9]; [20],0
same,"Plant response rating, Foxtail, Giant",[9]; [21],5
same,"Foxtail, Giant plant response rating",[9]; [26],85
same,"Plant response rating, Foxtail, Green",[10]; [17],80
same,"Plant response rating, Foxtail, Green",[10]; [23],80
same,"Plant response rating, Foxtail, Green",[10]; [24],80
same,"Plant response rating, Foxtail, Green",[10]; [18],80
same,"Foxtail, Green plant response rating",[10]; [25],90
same,"Plant response rating, Foxtail, Green",[10]; [20],0
same,"Plant response rating, Foxtail, Green",[10]; [21],30
same,"Foxtail, Green plant response rating",[10]; [26],50
